From patent US20210356472A1, “METHODS AND COMPOSITIONS FOR DETECTION AND VISUALIZATION OF OXIDATIVE STRESS-INDUCED CARBONYLATION IN CELLS” (The Research Foundation for The State University of New York, priority 2020, published 2021)

Legend:
[1] = system: A549 cells; experiment: Detection of carbonylation in live cells with hydrazide fluorophores; type: cell-based
Protocol: At the end of the incubation period with the OSA or vehicle, 1 μL of 2 mM fluorophore (final concentrations: fluorophore=10 μM; DMSO=0.5%, v/v) is added to one corner of each well, taking care not to touch the bottom of the well with the pipet tip, and mixed well, by gently moving the chambered coverglass in a circular motion (clockwise as well as counter-clockwise). The coverglass is then returned to the cell culture incubator and incubated for 30-45 min. The difference in fluorescence between the control and the sample may be affected by the time of incubation with the fluorophore and the cell line. The incubation time is adjusted based on the cell line and oxidant used. The medium is discarded and 500 μL fresh medium added to each well. The coverglass is returned to the cell culture incubator for 3 min. The washing step is repeated two more times. The final wash medium is discarded, and 200 μL of fresh medium added, and the cells imaged by, e.g., confocal microscopy.
A549 cells were treated with vehicle (0.1% DMSO, v/v) or 100 μM menadione for 1 h, followed by 10 μM DCCH, BODIPYH, TxRH or TFCH for 30 min. The medium was discarded, and fresh medium was added to the cells and allowed to incubate for 5 min. After an additional round of medium change, the cells were imaged live using a confocal laser scanning microscope.
FIGS. 9A-9C show quantitative analysis of carbonyls in live cells in high throughput platform: A549 cells grown in standard media (control) or serum free media (serum starved) for ˜24 h were allowed to react with 10 μM hydrazide fluorophores for 1 h. Cells were washed and the emission of respective samples were recorded. The excitation (ex) and emission (em) wavelengths used are as follows: (FIG. 9A) DCCH (ex: 405 nm; em: 475 nm); (FIG. 9B) BODIPYH (ex: 488 nm; em: 530 nm); (FIG. 9C) TxRH (ex: 543 nm; em: 620 nm). Fluorescence in each sample was normalized to cell density. The graphs represent fluorescence of the serum starved samples relative to the control samples.
The cells were washed and imaged live using a confocal microscope. […]

[2] = Absorption and emission spectra of hydrazide fluorophores and their hydrazones with propanal; type: physicochemical; conditions: 10 mM PB, pH 7 containing 0.5% DMSO (v/v); for Hydrazide + propanal Abs max / Hydrazide + propanal Em max: corresponding hydrazone with propanal
Protocol: FIGS. 15A-15F show absorption (top) and emission (bottom) spectra of (FIGS. 15A, 15B) DCCH, (FIGS. 15C, 15D) BODIPYH, and (FIGS. 15E, 15F) TxRH and their corresponding hydrazones with propanal in 10 mM PB, pH 7 containing 0.5% DMSO (v/v). The excitation wavelengths used for obtaining the emission spectra are as follows: DCCH (ex: 405 nm), BODIPYH (ex: 450 nm), TxRH (543 nm). The arrow in the absorption spectra denotes the wavelength of the excitation laser used in the microscopy experiments.

[3] = Fluorescence quantum yield; type: physicochemical; conditions: in water; 'believed to have'
Excerpt: The fluorescence “quantum yield” (φ) is the ratio of the number of photons emitted to the number absorbed. The term fluorescence quantum yield (φ) is a measure of the efficiency of photon emission through fluorescence, which is the loss of energy by a substance that has absorbed light via emission of a photon. In other words, the fluorescence quantum yield gives the probability of the excited state being deactivated by fluorescence rather than by another, non-radiative mechanism such as internal conversion or vibrational relaxation (non-radiative loss of energy as heat to the surroundings). The fluorescence intensity (F) is proportional to the amount of light absorbed, F=φ(Io-I), where lo is the intensity of the incident light and l is the intensity transmitted. […] When the concentration of the fluorescent compound is low, the fluorescence intensity is given by the equation: […].
TFCH is believed to have a quantum yield of >0.1 in water. […] “Solvent effect on absolute fluorescence quantum yield of rhodamine 6G determined using transient thermal lens technique.” Modern physics letters B 13, no. […] “Fluorescence lifetime of acridine in water-organic solvent mixtures.” Bulletin of the Chemical Society of Japan 42, no. […]

[4] = Reaction of TFCH with biomolecule ketones, cell-free systems versus living cells
Excerpt: It is believed that, in vivo, small molecules such as amino acids are involved in catalysis of the reaction.

[5] = system: lung cancer (A549) cells; experiment: Cellular influx and efflux of TFCH in live A549 cells; type: cell-based
Protocol: (§1) Oxidized BSA was used as a model carbonylated biomolecule and TFCH's ability to detect it in an isolated system was tested. […] Next, the compatibility of TFCH for cell-based assays was established using lung cancer (A549) cells as a model cell line. TFCH's influx and efflux were achieved readily (<5 min) (FIGS. 21D and 21E). […] Importantly, given the turn-up property of the fluorophore, it was possible to identify carbonyls in live cells in the presence of unreacted fluorophores by a one-step high content screening (HCS)-compatible assay. Low concentration of the dye (2 µM) can detect carbonyls induced by serum starvation in live cells within 30 min (FIG. 22C). This single-step (no wash) assay format may be particularly suitable for screening molecules that have a propensity to induce cell detachment. Alternatively, excess fluorophore can be removed and the cells can be either imaged live (FIGS. 21D and 21E) or can be fixed and preserved for analysis at a later time Indeed, a similar spatial distribution and increase in carbonylation due to serum starvation was detected in both live (FIGS. 5, 19B) and fixed cells (fixed after fluorescent labeling in live cells). […] See also, (Vemula, Ni, & Fedorova, 2015).
(§2) FIGS. 21A-21B, Limit of detection (LOD) of TFCZ (hydrazone of TFCH and propanal) in A549 cell lysate. […] Emission spectra of the lysates were recorded by exciting the samples at 372 nm.

[6] = Photochemical comparison of TFCH with BzCH; type: physicochemical
[7] = target: oxidized BSA (Bos taurus, UniProt P02769); experiment: Fluorescent labelling of oxidized BSA (SDS-PAGE); type: biochemical; conditions: isolated system, oxidized BSA as model carbonylated biomolecule
Protocol: as §1, §2

Chain of oxidized BSA (P02769 25-607): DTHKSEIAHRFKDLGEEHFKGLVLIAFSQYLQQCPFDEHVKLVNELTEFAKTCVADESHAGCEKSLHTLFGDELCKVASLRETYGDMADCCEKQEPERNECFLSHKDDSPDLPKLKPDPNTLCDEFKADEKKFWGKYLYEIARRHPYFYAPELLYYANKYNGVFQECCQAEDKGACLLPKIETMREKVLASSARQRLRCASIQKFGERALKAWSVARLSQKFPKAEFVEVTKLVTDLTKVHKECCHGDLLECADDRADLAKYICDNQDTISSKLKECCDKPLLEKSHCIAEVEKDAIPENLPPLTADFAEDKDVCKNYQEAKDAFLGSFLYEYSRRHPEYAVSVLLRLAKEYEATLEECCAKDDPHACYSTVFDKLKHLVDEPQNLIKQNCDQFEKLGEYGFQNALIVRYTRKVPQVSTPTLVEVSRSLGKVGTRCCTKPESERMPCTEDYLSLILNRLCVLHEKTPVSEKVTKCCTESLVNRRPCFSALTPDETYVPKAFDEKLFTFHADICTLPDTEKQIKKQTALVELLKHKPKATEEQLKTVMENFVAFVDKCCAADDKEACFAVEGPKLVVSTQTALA

| Compound | suitability as optical probe for carbonylation in live cells [1] | Hydrazide + propanal Abs max [2] [nm] | Hydrazide + propanal Em max [2] [nm] | Hydrazide Abs max [2] [nm] | Hydrazide Em max [2] [nm] | quantum yield [3] | reaction with biomolecule ketones in cell-free systems relative to living cells [4] | influx and efflux time [5] [min] | photostability compared with BzCH [6] | absorption at 405 nm compared with BzCH ([6]; 405 nm) | labelling of oxidized BSA [7] |
| --- | --- | --- | --- | --- | --- | --- | --- | --- | --- | --- | --- |
| CCN(CC)c1ccc2cc(C(=O)NN)c(=O)oc2c1 [DCCH, 7-(diethylamino)coumarin-3-carbohydrazide] | found suitable as optical probes for carbonylation in live cells | 439 | 481 | 429 | 479 | – | – | – | – | – | – |
| Cc1cc(C)n2c1C=C1C=CC(CCC(=O)NN)=[N+]1[B-]2(F)F [BODIPYH] | found suitable as optical probes for carbonylation in live cells | 503 | 510 | 503 | 510 | – | – | – | – | – | – |
| NNc1ccc2c(C(F)(F)F)cc(=O)oc2c1 [TFCH, 4-Trifluoromethyl-7-hydrazinyl-2H-chromen-2-one] | – | – | – | – | – | > 0.1 | eight hundred times slower | < 5 | more photostable than BzCH | higher absorption at 405 nm than the BzCH | able to fluorescently label oxidized BSA and form a stable conjugate |
| NNS(=O)(=O)c1ccc(C2=c3cc4c5c(c3Oc3c2cc2c6c3CCCN6CCC2)CCC[N+]=5CCC4)c(S(=O)(=O)[O-])c1 [TxRH] | found suitable as optical probes for carbonylation in live cells | 589 | 607 | 589 | 607 | – | – | – | – | – | – |
